According to publication PMC8432116, “Drug–Drug Interaction between Tacrolimus and Vonoprazan in Kidney Transplant Recipients” (Journal of Clinical Medicine, 2021):
Values joined by “and” are separate entries in the source; they are usually repeats but may differ in a detail not shown here. Equal values may be shown once. Read-outs that look alike come from different tables or passages of the source.

What was measured:
[1] = Estimated maximum concentration in the intestinal lumen according to DDI guidelines; parameters: species or system human
Excerpt: P-glycoprotein, a drug efflux transporter expressed in the intestinal lumen, can be considered in addition to CYP as the mechanism of the DDIs between vonoprazan and tacrolimus.

[2] = Laboratory data of liver and kidney function before and after the switch; assay type: in vivo, human; settings: during the named PPI phase; 18 recipients on tacrolimus
Procedure: (§1) Eighteen kidney transplant recipients were recruited for this study from February 2015 to July 2020 (Table 1). The recipients were treated with tacrolimus-based immunosuppression, tacrolimus QD (Graceptor®; Astellas Pharma, Tokyo, Japan) in combination with mycophenolate mofetil and corticosteroids. The initial dose of tacrolimus QD was 0.15–0.20 mg/kg/day for 3–7 days before transplantation. The patients’ PPIs were switched from oral rabeprazole to vonoprazan (TAK-438; Takecab®; Takeda Pharmaceutical Company Limited., Tokyo, Japan) for intensive gastric acid suppression on postoperative days (POD) 3–43. The median (range) dose of oral rabeprazole and vonoprazan were 0.16 (0.11–0.22) and 0.31 (0.11–0.44) mg/kg/day, respectively (Table 1). Blood concentrations of tacrolimus were […] when the rabeprazole was switched to vonoprazan. Liver function for the patients was normal. […] Major symptoms due to gastric ulcer, retching, and heartburn disappeared by switching from rabeprazole to vonoprazan.

P-glycoprotein = system: P-glycoprotein; parameters: method as in PMID 15467223; settings: read-out: IC50 for inhibition of P-glycoprotein transporter activity; cited from earlier work
[3] = Whole blood trough concentration and C/D ratio of tacrolimus before and after switching PPI from rabeprazole to vonoprazan; assay type: in vivo, human; settings: for Trough tacrolimus concentration, typical case / C/D ratio of tacrolimus, typical case: single case; for Percentage increase of the C/D ratio: vonoprazan coadministration; for Tacrolimus trough concentration, median (range): whole blood, 18 kidney transplant recipients
Procedure: as §1
Whole blood concentrations of tacrolimus were measured using the ARCHITECT chemiluminescent immunoassay system (Abbot, Abbot Park, IL, USA). Blood samples were collected in the morning just before the morning administration of tacrolimus to determine the trough levels. Tacrolimus dose was adjusted to achieve predefined target concentration ranges of 5–10 ng/mL (POD −3–14), 7–8 ng/mL (POD 14–28), and 5–8 ng/mL (after POD 28). The change in concentration/dose (C/D; in nanogram per milliliter/milligram per kilogram) ratio of tacrolimus before and after initiating oral vonoprazan was calculated to assess the DDIs.
Genomic DNA was extracted from peripheral whole blood samples using the QIAamp DNA blood kit system (Qiagen, Hilden, Germany) according to the manufacturer’s instruction. Subjects were genotyped for CYP2C19 rs4244285 (CYP2C19*2), CYP2C19 rs4986893 (CYP2C19*3), and CYP3A5 rs776746 (CYP3A5*3) polymorphisms. These variants were identified by real-time polymerase chain reaction (PCR) using a TaqMan® Drug Metabolism Genotyping Assays (Thermo Fisher Scientific, Waltham, MA, USA) with a QuantStudio 3 real-time PCR system (Thermo Fisher Scientific). Recipients were categorized into two groups based on the CYP2C19 genotypes (extensive metabolizer (EM; CYP2C19*1/*1)), intermediate metabolizer (IM; CYP2C19*1/*2 and *1/*3), and poor metabolizer (PM; *2/*2, *2/*3, and *3/*3)] and the CYP3A5 genotypes (CYP3A5*1 carrier (CYP3A5*1/*1 and CYP3A5*1/*3)) and the noncarrier (CYP3A5*3/*3)].
The Wilcoxon signed-rank test was used to compare the difference in the concentration and C/D ratio of tacrolimus before and after switching to vonoprazan. Differences in the concentration and C/D ratio of tacrolimus among the genotypes were compared by the Mann–Whitney U test. The statistical analyses were carried out using SPSS 26.0 (IBM, Tokyo, Japan). Results with a p value of <0.05 were considered statistically significant.

[4] = parameters: method as in PMID 19177031; settings: cited from earlier work
[5] = Clinical observation of adverse events and gastric symptoms after switching; assay type: in vivo, human
Procedure: as §1

[6] = cited from earlier work; for Increase in C/D ratio of tacrolimus after the conversion: outpatient phase of post-transplantation
[7] = CYP2C19 EM, n=5, rabeprazole to vonoprazan
[8] = CYP2C19 IM/PM, n=13, Rabeprazole
[9] = CYP2C19 IM/PM, n=13, Vonoprazan
[10] = CYP2C19 IM/PM, n=13, rabeprazole to vonoprazan
[11] = CYP3A5 *1 carrier, n=5, Rabeprazole
[12] = CYP3A5 *1 carrier, n=5, Vonoprazan
[13] = CYP3A5 *1 carrier, n=5, rabeprazole to vonoprazan
[14] = CYP3A5 *1 noncarrier, n=13, Rabeprazole
[15] = CYP3A5 *1 noncarrier, n=13, Vonoprazan
[16] = CYP3A5 *1 noncarrier, n=13, rabeprazole to vonoprazan
[17] = rabeprazole to vonoprazan, 18 recipients
[18] = vonoprazan coadministration vs rabeprazole

Compound: COCCCOc1ccnc(C[S+]([O-])c2nc3ccccc3[nH]2)c1C (stereo not shown) [Rabeprazole]
- Estimated maximum concentration in the intestinal lumen ([1]; administered at 10 mg): 111 µM
- Alanine aminotransferase, median (range) [2]: 28 IU/L
- Aspartate aminotransferase, median (range) [2]: 16 IU/L
- Blood urine nitrogen, median (range) [2]: 24.2 (9.8–78.7) mg/dL
- Serum creatinine, median (range) [2]: 1.55 (0.62–4.31) mg/dL
- IC50 (P-glycoprotein): ≥ 100 µM

Compound: C=CC[C@@H]1/C=C(\C)C[C@H](C)C[C@H](OC)[C@H]2O[C@@](O)(C(=O)C(=O)N3CCCC[C@H]3C(=O)O[C@H](/C(C)=C/[C@@H]3CC[C@@H](O)[C@H](OC)C3)[C@H](C)[C@@H](O)CC1=O)[C@H](C)C[C@@H]2OC [Tacrolimus]
- Tacrolims C/D Ratio, median ([3]; CYP2C19 EM, n=5, Rabeprazole): 25.6 (ng/mL)/(mg/kg/day)
- Tacrolimus Concentration, median ([3]; CYP2C19 EM, n=5, Rabeprazole): 4.0 ng/mL
- Tacrolims C/D Ratio, median ([3]; CYP2C19 EM, n=5, Vonoprazan): 40.7 (ng/mL)/(mg/kg/day)
- Tacrolimus Concentration, median ([3]; CYP2C19 EM, n=5, Vonoprazan): 8.5 ng/mL
- ΔC/D Ratio, median [3, 7]: 15.1
- ΔConcentration, median [3, 7]: 3.6 ng/mL
- Tacrolims C/D Ratio, median [3, 8]: 39.5 (ng/mL)/(mg/kg/day)
- Tacrolimus Concentration, median [3, 8]: 5.3 ng/mL
- Tacrolims C/D Ratio, median [3, 9]: 50.4 (ng/mL)/(mg/kg/day)
- Tacrolimus Concentration, median [3, 9]: 7.7 ng/mL
- ΔC/D Ratio, median [3, 10]: 6.3
- ΔConcentration, median [3, 10]: 3 ng/mL
- Tacrolims C/D Ratio, median [3, 11]: 36.9 (ng/mL)/(mg/kg/day)
- Tacrolimus Concentration, median [3, 11]: 5.3 ng/mL
- Tacrolims C/D Ratio, median [3, 12]: 45.1 (ng/mL)/(mg/kg/day)
- Tacrolimus Concentration, median [3, 12]: 8.5 ng/mL
- ΔC/D Ratio, median [3, 13]: 14.6
- ΔConcentration, median [3, 13]: 2.8 ng/mL
- Tacrolims C/D Ratio, median [3, 14]: 44.9 (ng/mL)/(mg/kg/day)
- Tacrolimus Concentration, median [3, 14]: 5.0 ng/mL
- Tacrolims C/D Ratio, median [3, 15]: 50.4 (ng/mL)/(mg/kg/day)
- Tacrolimus Concentration, median [3, 15]: 7.5 ng/mL
- ΔC/D Ratio, median [3, 16]: 18.3
- ΔConcentration, median [3, 16]: 3.3 ng/mL
- Percent change in tacrolimus C/D ratio after the switching, median (range) [3, 17]: 41.8% and 41.8 (2.7–129.8) %
- Percent change in tacrolimus concentration after the switching, median (range) [3, 17]: 65.8% and 65.8 (0.0–192.5) %
- Trough tacrolimus concentration, typical case ([3]; after switching to vonoprazan): 9.4 to 10.7 ng/mL
- C/D ratio of tacrolimus, typical case ([3]; rabeprazole phase): 26.2–29.0
- Trough tacrolimus concentration, typical case ([3]; rabeprazole phase): 3.8 to 4.7 ng/mL
- C/D ratio of tacrolimus, typical case ([3]; vonoprazan phase, 10 mg, before dose escalation): 33.6–37.1
- C/D ratio of tacrolimus, typical case ([3]; vonoprazan phase, after escalation to 20 mg): 41.3–48.8
- Elevation in C/D ratio of tacrolimus [3, 18]: 1.4 fold
- Elevation in blood concentration of tacrolimus [3, 18]: 1.7 fold
- Percentage increase of the C/D ratio ([3]; CYP3A5*1 carriers): 44.4%
- Percentage increase of the C/D ratio ([3]; CYP3A5*1 noncarriers): 39.1%
- Tacrolimus trough concentration, median (range) ([3]; with rabeprazole, before switching): 5.2 (3.6–7.4) ng/mL
- Tacrolimus trough concentration, median (range) ([3]; with vonoprazan, after switching): 8.1 (6.1–11.7) ng/mL
- Tacrolimus C/D ratio, median (range) ([3]; with rabeprazole, before switching, 18 recipients): 38.1 (16.5–138.1) (ng/mL)/(mg/kg)
- Tacrolimus C/D ratio, median (range) ([3]; with vonoprazan, 7 days after initiating, 18 recipients): 48.9 (26.6–207.2) (ng/mL)/(mg/kg)
- Therapeutic range of blood concentration [4]: 5 to 15 ng/mL
- Adverse events ([5]; all patients, after switching to vonoprazan, tacrolimus kept in therapeutic range): No adverse event was observed
- Increase in C/D ratio of tacrolimus after the conversion ([6]; ref 27): 10.6%
- Increase in C/D ratio of tacrolimus after the conversion ([6]; ref 30): no increase
- Increase of the C/D ratio of tacrolimus after switching rabeprazole to vonoprazan ([6]; outpatients 2–7 years post-transplantation): 1.1 fold
- Increase of tacrolimus trough levels after switching to vonoprazan ([6]; outpatients, even in the CYP2C19 IM/PM in the CYP3A5*1 noncarriers): no significant increase

Compound: CNCc1cc(-c2ccccc2F)n(S(=O)(=O)c2cccnc2)c1.O=C(O)/C=C/C(=O)O [Vonoprazan, 1-[5-(2-Fluorophenyl)-1-(pyridin-3-ylsulfonyl)-1H-pyrrol-3-yl]-N-methylmethanamine monofumarate]
- Estimated maximum concentration in the intestinal lumen ([1]; administered at 20 mg): 231 µM
- Alanine aminotransferase, median (range) [2]: 22 IU/L
- Aspartate aminotransferase, median (range) [2]: 15 IU/L
- Blood urine nitrogen, median (range) [2]: 17.4 (7.5–45.4) mg/dL
- Serum creatinine, median (range) [2]: 1.21 (0.58–2.84) mg/dL
- IC50 (P-glycoprotein): 50 µM
- Major symptoms due to gastric ulcer, retching and heartburn ([5]; switching from rabeprazole to vonoprazan): disappeared
